According to publication PMC9136971 (ACS Central Science, 2022):
Where a SMILES comes first, the peptide text is derived from it. The star is where a group is joined. X1 = O=C(O)[C@H]1CSC(c2nc3ccc(OCc4ccc(N*)cc4)cc3s2)=N1

Legend:
[1] = DLS size distribution and zeta potential of nanoaggregates; type: physicochemical; conditions: without gzmB cleavage
[2] = test system: A20Luc+ cells; experiment: Cell viability assay; type: cell-based, mouse; conditions: 5 μM – 100 μM, 37 °C, 3.5 h, absorbance at 490 nm
[3] = test system: activated untransduced CD8+ T cells; experiment: Cell viability assay; type: cell-based, mouse; conditions: 5 μM – 100 μM, 37 °C, 3.5 h, absorbance at 490 nm
[4] = test system: CAR T cells; experiment: Cell viability assay; type: cell-based, mouse; conditions: 5 μM – 100 μM, 37 °C, 3.5 h, absorbance at 490 nm
[5] = Baseline uptake and biodistribution study in healthy mice; type: in vivo, mouse; conditions: for baseline bioluminescence distribution: healthy Fluc+ BALB/c mice, D-luciferin 3 mg i.p., GBLI2 200 μg i.v. retro-orbital
[6] = test system: untransduced activated CD8+ T cells; experiment: Cellular uptake assay; type: cell-based, mouse; conditions: 5 μM, pre-incubation 30 min, 2.5 h at 4 or 37 °C, flow cytometry

Molecule | DLS signal of G-SNAT uncleaved by gzmB [1] | cell viability (MTS) [2] | cell viability (MTS) [3] | cell viability (MTS) [4] | baseline bioluminescence distribution [5] | G-SNAT-Cy5 uptake at 4 °C versus 37 °C (MFI-Cy5 of viable cells) [6] | organ distribution of fluorescence after dissection ([5]; 5 nmol retro orbital, 1 h post i.v. injection, organ imaging, n = 3)
(4S,10R,13S,16S,19S)-19-((2S,3S)-2-acetamido-3-methylpentanamido)-16-benzyl-13(carboxymethyl)-1-(4-((3-((2-cyanopyrimidin-5-yl)oxy)propyl)carbamoyl)phenyl)-10-((ethylsulfinothioyl)methyl)-3,6,9,12,15,18-hexaoxo-4-(prop-2-yn-1-yl)-2,5,8,11,14,17-hexaazadocosan-22-oic acid [G-SNAT] | No DLS signal could be detected | well tolerated | well tolerated | well tolerated | – | – | –
O=C([O-])[C@H]1CSC(c2nc3ccc(O)cc3s2)=N1.[K+] [D-luciferin, D-luciferin, potassium salt] | – | – | – | – | mainly restricted to the abdomen | – | –
CCSSC[C@H](NC(=O)[C@H](CC(=O)O)NC(=O)[C@H](Cc1ccccc1)NC(=O)[C@H](CCC(=O)O)NC(=O)[C@@H](NC(C)=O)[C@@H](C)CC)C(=O)NCC(=O)N[C@@H](Cc1cn(CCCNC(=O)CCCCC[N+]2=C(/C=C/C=C/C=C3/N(C)c4ccc(S(=O)(=O)[O-])cc4C3(C)C)C(C)(C)c3cc(S(=O)(=O)O)ccc32)nn1)C(=O)NCc1ccc(C(=O)NCCCOc2cnc(C#N)nc2)cc1 [G-SNAT-Cy5] | – | well tolerated | well tolerated | well tolerated | – | significantly attenuated | mainly associated with the gastrointestinal tract
CC[C@H](C)[C@H](NC(C)=O)C(=O)N[C@@H](CCC(=O)O)C(=O)N[C@@H](Cc1ccccc1)C(=O)N[C@@H](CC(=O)O)C(=O)Nc1ccc(COc2ccc3nc(C4=N[C@@H](C(=O)O)CS4)sc3c2)cc1 [GBLI2] (Ac-IEFD-X1) | – | – | – | – | highly concentrated in the spleen | – | –
